In brackets after ≈: the same amount, converted by molar mass.
Experiments:
[1] = system: Hela S3 cells (ATCC HTB22); experiment: Growth inhibition on Hela S3 cells; format: cell-based; details: Homo sapiens, 72 hours incubation, Giemsa staining, read-out: IC50 against the cell growth
Procedure: Into each well of a 96-well microtiter plate was pipetted 0.1 ml of a 3.0×10^4 cells/ml suspension of Hela S3 cells (ATCC HTB22) in DEM medium containing 10% of fetal calf serum (manufactured by Nissui, hereinafter referred to as "medium A"). This plate was incubated in a carbon dioxide gas incubator at 37° C. for 20 hours. Then, 0.1 ml of the test compound, which had been appropriately diluted with the medium A, was added to each well followed by incubation in the carbon dioxide gas incubator at 37° C. for additional 72 hours. After having removed the culture supernatant, the residue was washed with physiological saline once and treated with 0.1 ml of methanol for 10 minutes to thereby fix the cells. Next, the cells were stained with 0.1 ml of Giemsa's staining solution [stock solution for Giemsa's staining Merck Art 9204 (manufactured by Merck): physiological saline=1:10] for 5 minutes. After having removed the staining solution, the residue was washed with 0.2 ml of water once. Then, the pigment was extracted with 0.2 ml of 0.1N hydrochloric acid, and the absorbance was measured at 620 nm by the use of a microplate reader. From the result of the measurement, the increased amount of the grown cells was determined. […]

[2] = system: Shigella sonnei ATCC 9290; experiment: Antibacterial activity, agar dilution method (MIC); format: cell-based; details: ATCC9290, medium pH 7, read-out: Minimum Inhibitory Concentration
Procedure: (§1) These antibacterial activities were determined by the agar dilution method with the use of a medium (pH 7) comprising 3 g/liter of bactotryptone (manufactured by Difco), 3 g/liter of meat extract, 1 g/liter of yeast extract, 1 g/liter of glucose and 16 g/liter of agar.

[3] = system: Candida albicans ATCC 10231; experiment: Antibacterial activity, agar dilution method (MIC); format: cell-based; details: ATCC10231, medium pH 7, read-out: Minimum Inhibitory Concentration
Procedure: as §1

[4] = system: Bacillus subtilis No. 10707; experiment: Antibacterial activity, agar dilution method (MIC); format: cell-based; details: medium pH 7, read-out: Minimum Inhibitory Concentration
Procedure: as §1

[5] = system: Proteus vulgaris ATCC 6897; experiment: Antibacterial activity, agar dilution method (MIC); format: cell-based; details: ATCC6897, medium pH 7, read-out: Minimum Inhibitory Concentration
Procedure: as §1

[6] = system: Enterococcus hirae ATCC 10541; experiment: Antibacterial activity, agar dilution method (MIC); format: cell-based; details: ATCC10541, medium pH 7, read-out: Minimum Inhibitory Concentration
Procedure: as §1

Escherichia coli ATCC 26 = experiment: Antibacterial activity, agar dilution method (MIC); format: cell-based; details: ATCC26, medium pH 7, read-out: Minimum Inhibitory Concentration
Procedure: as §1

[7] = system: Klebsiella pneumoniae ATCC 10031; experiment: Antibacterial activity, agar dilution method (MIC); format: cell-based; details: ATCC10031, medium pH 7, read-out: Minimum Inhibitory Concentration
Procedure: as §1

[8] = system: Salmonella choleraesuis ATCC 9992; experiment: Antibacterial activity, agar dilution method (MIC); format: cell-based; details: Salmonella enterica, pH 7, read-out: Minimum Inhibitory Concentration
Procedure: as §1

[9] = system: Staphylococcus aureus ATCC 6538P; experiment: Antibacterial activity, agar dilution method (MIC); format: cell-based; details: ATCC6538P, medium pH 7, read-out: Minimum Inhibitory Concentration
Procedure: as §1

[10] = system: Pseudomonas aeruginosa Bin H No. 1; experiment: Antibacterial activity, agar dilution method (MIC); format: cell-based; details: medium pH 7, read-out: Minimum Inhibitory Concentration
Procedure: as §1

[11] = system: human ovarian cancer strain A2780 tumor; experiment: Antitumor activity on human ovarian cancer strain A2780; format: in vivo; details: 0.38 mg/kg, once into tail vein; nude mice (BALB/C-nu/nu); 14 days after injection; [V/V0]/[C/C0]
Procedure: Nude mice (BALB/C-nu/nu) were used herein, which were grouped into plural groups, each group being comprised of 5 mice. A human ovarian cancer strain A2780 tumor (a piece of 8mm^3) was implanted into the subcutaneous tissue in the abdominal region of each mouse. After the implantation, when the tumor volume in each tumor-carrying mouse reached between 50 and 300 mm^3, a solution of UCH15B in physiological saline was injected once into the tail vein of each mouse (in the test group). Just before the injection of said UCH15B solution, the volume of the tumor (V0) in each mouse was measured. 14 days after the injection thereof, the volume of the tumor (V) therein was measured. Into each mouse in the control group, only physiological saline was injected. Just before the injection of physiological saline, the volume of the tumor (C0) in each mouse was measured. 14 days after the injection thereof, the volume of the tumor (C) therein was measured. The antitumor activity of the test compound, UCH15B was obtained according to the following equation.
Antitumor Activity=[V/V0]/[C/C0 ]
V: tumor volume (mm^3) in test group after the test
V0 : tumor volume (mm^3) in test group before the test
C: tumor volume (mm^3) in control group after the test
C0 : tumor volume (mm^3) in control group before the test

sarcoma 180 tumor = experiment: Antitumor activity on sarcoma 180 tumor; format: in vivo, male ddY mice; details: for Mean Tumor Volume: once into tail vein on day 1, measured on 7th day after implantation, ddY mice; for Antitumor Activity (T/C): once into tail vein, day 7, mean tumor volume test/control
Procedure: Male ddY mice were used herein, which were grouped into plural groups, each group being comprised of 5 mice. 5×10^6 sarcoma 180 tumor cells were implanted into the subcutaneous tissue in the axillary region of each mouse. On the 1st day after the implantation, a solution of UCH15B dissolved in physiological saline was injected once into the tail vein of each mouse. On the 7th day after the implantation, the mean tumor volume (mm^3) in each mouse was measured. […] Said antitumor activity was calculated according to the following equation.
=[mean tumor volume (mm^3) in mice in test group]/[mean tumor volume (mm^3) in mice in control group (to which was administered physiological saline only)]

Row | Compound | IC50 [1] | MIC [2] | MIC [3] | MIC [4] | MIC [5] | MIC [6] | MIC (Escherichia coli ATCC 26) | MIC [7] | MIC [8] | MIC [9] | MIC [10] | Antitumor Activity (T/C) [11] | Mean Tumor Volume (sarcoma 180 tumor; 0.094 mg/kg) | Antitumor Activity (T/C) (sarcoma 180 tumor; 0.094 mg/kg) | Mean Tumor Volume (sarcoma 180 tumor; 0.19 mg/kg) | Antitumor Activity (T/C) (sarcoma 180 tumor; 0.19 mg/kg) | Mean Tumor Volume (sarcoma 180 tumor; 0.38 mg/kg) | Antitumor Activity (T/C) (sarcoma 180 tumor; 0.38 mg/kg) | Mean Tumor Volume (sarcoma 180 tumor; 0.75 mg/kg) | Antitumor Activity (T/C) (sarcoma 180 tumor; 0.75 mg/kg)
1 | N#CC(CC(=O)NC(C=O)C/C=C/CN)NC(=O)c1cc(NC(=O)c2cc(NC(=O)CNC(=N)N)c[nH]2)c[nH]1 (stereo not shown) [UCH15A] | 1200 nM | 0.16 µg/mL (≈ 0.297 µM) | 10.4 µg/mL (≈ 19.3 µM) | 0.08 µg/mL (≈ 0.148 µM) | 0.16 µg/mL (≈ 0.297 µM) | 2.6 µg/mL (≈ 4.82 µM) | 0.16 µg/mL (≈ 0.297 µM) | 0.02 µg/mL (≈ 0.0371 µM) | 0.16 µg/mL (≈ 0.297 µM) | 2.6 µg/mL (≈ 4.82 µM) | > 50 µg/mL |  |  |  |  |  |  |  |  | 
2 | N#CC(CC(=O)NC(C=O)C/C=C/CN)NC(=O)c1cc(NC(=O)c2cc(NC(=O)CNC(N)=NO)c[nH]2)c[nH]1 (stereo not shown) [UCH15B] | 1000 nM | 0.33 µg/mL (≈ 0.594 µM) | > 41.7 µg/mL | 0.33 µg/mL (≈ 0.594 µM) | 0.33 µg/mL (≈ 0.594 µM) | 10.4 µg/mL (≈ 18.7 µM) | 0.08 µg/mL (≈ 0.144 µM) | 0.04 µg/mL (≈ 0.072 µM) | 0.33 µg/mL (≈ 0.594 µM) | 5.2 µg/mL (≈ 9.36 µM) | > 50 µg/mL | 0.27 | 1528 mm^3 | 0.65 | 1405 mm^3 | 0.60 | 1035 mm^3 | 0.44 | 522 mm^3 | 0.22

Reference: patent US5717110A, “UCH15 compounds” (Kyowa Hakko Kogyo Co., Ltd., priority 1995, dated 1998)
